The target of assay [1] is Sodium-dependent serotonin transporter (Rattus norvegicus, UniProt P31652). In words: Displacement of [3H]-Citalopram from SERT in rat cerebral cortex homogenates after 1 hr by liquid scintillation counter. Type of assay: tissue-based. (In general: Displacement assays read how much labelled ligand stays bound in the presence of the test substance.)
Assay [2] concerns the target Sodium-dependent serotonin transporter (Homo sapiens, UniProt P31645). In words: Displacement of [3H]-5HT from human SERT.

Sequence of Sodium-dependent serotonin transporter (Rattus norvegicus, UniProt P31652) (P31652 whole entry): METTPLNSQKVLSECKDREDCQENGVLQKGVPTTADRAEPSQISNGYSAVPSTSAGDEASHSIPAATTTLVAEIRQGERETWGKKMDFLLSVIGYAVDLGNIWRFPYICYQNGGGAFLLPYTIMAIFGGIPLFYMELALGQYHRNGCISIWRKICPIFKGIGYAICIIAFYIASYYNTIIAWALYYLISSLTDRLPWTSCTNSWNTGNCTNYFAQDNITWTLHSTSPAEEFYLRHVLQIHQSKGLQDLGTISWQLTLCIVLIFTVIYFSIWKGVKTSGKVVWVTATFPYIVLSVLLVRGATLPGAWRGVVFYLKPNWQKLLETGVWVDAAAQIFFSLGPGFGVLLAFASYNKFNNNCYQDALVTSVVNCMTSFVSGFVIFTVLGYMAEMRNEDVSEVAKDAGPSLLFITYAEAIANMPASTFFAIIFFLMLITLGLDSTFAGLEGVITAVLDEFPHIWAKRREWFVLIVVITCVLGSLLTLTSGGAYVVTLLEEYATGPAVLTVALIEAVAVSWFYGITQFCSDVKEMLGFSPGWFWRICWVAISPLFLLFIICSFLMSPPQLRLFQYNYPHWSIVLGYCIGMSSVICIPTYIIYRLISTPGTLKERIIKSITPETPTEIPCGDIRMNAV
Sequence of Sodium-dependent serotonin transporter (Homo sapiens, UniProt P31645) (P31645 whole entry): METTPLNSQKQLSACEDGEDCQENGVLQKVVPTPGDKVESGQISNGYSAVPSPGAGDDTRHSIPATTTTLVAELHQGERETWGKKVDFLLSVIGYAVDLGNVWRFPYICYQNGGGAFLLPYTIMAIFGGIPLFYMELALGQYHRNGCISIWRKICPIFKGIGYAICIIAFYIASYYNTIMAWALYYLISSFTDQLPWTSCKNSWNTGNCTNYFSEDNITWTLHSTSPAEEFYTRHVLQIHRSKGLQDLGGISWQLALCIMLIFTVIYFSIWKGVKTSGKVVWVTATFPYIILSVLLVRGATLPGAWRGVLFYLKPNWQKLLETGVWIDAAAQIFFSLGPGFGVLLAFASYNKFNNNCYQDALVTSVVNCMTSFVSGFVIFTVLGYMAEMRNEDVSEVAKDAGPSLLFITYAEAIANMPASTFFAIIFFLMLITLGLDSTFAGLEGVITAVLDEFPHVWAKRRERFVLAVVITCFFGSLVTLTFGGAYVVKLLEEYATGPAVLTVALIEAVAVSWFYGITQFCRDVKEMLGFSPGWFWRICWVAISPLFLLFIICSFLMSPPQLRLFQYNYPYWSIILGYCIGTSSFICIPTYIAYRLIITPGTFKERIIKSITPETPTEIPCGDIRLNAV

Turning to `O=C1CCCC(=O)N1CCCCN1CCN(c2ccc3cc([N+](=O)[O-])ccc3n2)CC1`, the concentration for half-maximal inhibition (IC50) (as a rule, the point on the concentration scale where inhibition reaches its midpoint) in assay [1] stood at 921 nM.

As to `CC1(C)CC(=O)N(CCCCN2CCN(c3ccc4cc([N+](=O)[O-])ccc4n3)CC2)C(=O)C1`, in assay [1], the IC50 is 616 nM. The IC50 values of the last two compounds are within 1.5-fold of each other.

On to `CC1CN(c2ccc3ccccc3n2)CCN1CCCCN1C(=O)CC(C)(C)CC1=O` (stereo unspecified), for which, in assay [1], the IC50 is 171 nM.

In the case of `O=C1CC2(CCCC2)CC(=O)N1CCCCN1CCN(c2ccc3cc([N+](=O)[O-])ccc3n2)CC1`, the IC50 in assay [1] came out at 25900 nM.

In assay [1], `CC1(C)CC(=O)N(CCCCN2CCN(c3ccc4c(Cl)cccc4n3)CC2)C(=O)C1` returned a half-inhibitory concentration (IC50) of 2800 nM. Against the preceding compound, the IC50 is about 9.2-fold lower.

`O=C1c2ccccc2C(=O)N1CCCCN1CCN(c2ccc3cc([N+](=O)[O-])ccc3n2)CC1` gave an IC50 in assay [1] of 4130 nM.

The compound `CC1CN(c2ccc3cc([N+](=O)[O-])ccc3n2)CCN1CCCCN1C(=O)CCCC1=O` (stereo unspecified) had a concentration for half-maximal inhibition (IC50) in assay [1] of 268 nM.

`CC1CN(c2ccc3cc([N+](=O)[O-])ccc3n2)CCN1CCCCN1C(=O)CC2(CCCC2)CC1=O` (stereo unspecified): the IC50 in assay [1] came to 1350 nM.

Compound `CC1CN(c2ccc3cc([N+](=O)[O-])ccc3n2)CCN1CCCCN1C(=O)CC(C)(C)CC1=O` (stereo unspecified) showed an IC50 in assay [1] of 807 nM.

Regarding `O=[N+]([O-])c1ccc2nc(N3CCNCC3)ccc2c1` [6-NITROQUIPAZINE], the Ki (usually the dissociation constant of the complex between target and ligand, obtained from inhibition or displacement) in assay [2] worked out at 0.17 nM.

In assay [1], `CC(=O)Nc1ccc2nc(N3CCN(CCCCN4C(=O)CC5(CCCC5)CC4=O)CC3)ccc2c1` showed an IC50 of 18800 nM.

Values taken from ChEMBL document CHEMBL1944535, “Synthesis, in vitro binding studies and docking of long-chain arylpiperazine nitroquipazine analogues, as potential serotonin transporter inhibitors” (Eur J Med Chem, 2012).
